According to paper PMC8595653, “Activation of specific bitter taste receptors by olive oil phenolics and secoiridoids” (Scientific Reports, 2021):
pEC50: −log10 of the molar value. Entries after “also recorded” stand apart in the source; their conditions may differ.

Experiments:
[1] = biological target: T1, TAS2R8 (Homo sapiens, UniProt Q9NYW2); experiment: Calcium mobilization functional assay, TAS2R8 co-expressed with Gα16-gust44 and GCaMP in HEK293E cells; assay type: cell-based; conditions: for times more potent than oleuropein: potency of bitter receptor activation relative to oleuropein (1); for potency and efficacy on TAS2R8 in words: concentration-response experiments, maximal concentration 10 mM for oleuropein
T1 construct: first 45 amino acids of rat somatostatin type 3 receptor (SSTR3) export tag (N); expressed in transfected cells; host or cells: HEK293E
T1 sequence (Q9NYW2 1-309): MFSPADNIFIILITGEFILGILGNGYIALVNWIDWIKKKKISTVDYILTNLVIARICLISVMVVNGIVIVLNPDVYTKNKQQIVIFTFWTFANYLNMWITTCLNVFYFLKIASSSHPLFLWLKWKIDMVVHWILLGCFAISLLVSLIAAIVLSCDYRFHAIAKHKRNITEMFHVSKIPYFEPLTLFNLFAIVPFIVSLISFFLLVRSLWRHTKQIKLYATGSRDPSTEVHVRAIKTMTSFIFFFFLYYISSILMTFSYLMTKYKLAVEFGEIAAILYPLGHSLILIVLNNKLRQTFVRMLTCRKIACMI
Method: (§1) All constructs were confirmed by DNA sequencing.
(§2) Data from single dose experiments were collected as duplicates. […] Data represent mean ± SD.
(§3) To characterize the bitterness of olive oil phenolic compounds, we performed calcium mobilization experiments. The 25 bitter taste receptors, G protein chimera (Gα16-gus44), and the GCaMP calcium sensor[68] were transiently expressed in HEK293E cells. Twelve olive oil phenolic compounds (Fig. 1) were tested for bitter taster receptor activation (Fig. 3). […] Ligstroside aglycon, and Oleuropein aglycon activated TAS2R1, TAS2R8 and TAS2R14 receptors. To validate the single dose scanning results, we performed concentration–response experiments for all the compounds toward receptors TAS2R1, TAS2R8, and TAS2R14 that produced the most significant responses (Fig. 4).

[2] = biological target: T2, TAS2R1 (Homo sapiens, UniProt Q9NYW7); experiment: Calcium mobilization functional assay, TAS2R1 co-expressed with Gα16-gust44 and GCaMP in HEK293E cells; assay type: cell-based
T2 construct: first 45 amino acids of rat somatostatin type 3 receptor (SSTR3) export tag (N); expressed in transfected cells; host or cells: HEK293E
T2 sequence (Q9NYW7 1-299): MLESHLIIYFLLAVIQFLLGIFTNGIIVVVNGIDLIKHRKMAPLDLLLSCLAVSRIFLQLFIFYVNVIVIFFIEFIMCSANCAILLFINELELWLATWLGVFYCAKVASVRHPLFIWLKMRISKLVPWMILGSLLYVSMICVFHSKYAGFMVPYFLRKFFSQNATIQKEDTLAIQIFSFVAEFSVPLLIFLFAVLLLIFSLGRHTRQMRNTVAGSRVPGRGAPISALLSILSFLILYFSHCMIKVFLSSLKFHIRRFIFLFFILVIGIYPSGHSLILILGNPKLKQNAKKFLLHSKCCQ
Method: as §1, §2, §3

[3] = biological target: T3, TAS2R14 (Homo sapiens, UniProt Q9NYV8); experiment: Calcium mobilization functional assay, TAS2R14 co-expressed with Gα16-gust44 and GCaMP in HEK293E cells; assay type: cell-based
T3 construct: first 45 amino acids of rat somatostatin type 3 receptor (SSTR3) export tag (N); expressed in transfected cells; host or cells: HEK293E
T3 sequence (Q9NYV8 1-317): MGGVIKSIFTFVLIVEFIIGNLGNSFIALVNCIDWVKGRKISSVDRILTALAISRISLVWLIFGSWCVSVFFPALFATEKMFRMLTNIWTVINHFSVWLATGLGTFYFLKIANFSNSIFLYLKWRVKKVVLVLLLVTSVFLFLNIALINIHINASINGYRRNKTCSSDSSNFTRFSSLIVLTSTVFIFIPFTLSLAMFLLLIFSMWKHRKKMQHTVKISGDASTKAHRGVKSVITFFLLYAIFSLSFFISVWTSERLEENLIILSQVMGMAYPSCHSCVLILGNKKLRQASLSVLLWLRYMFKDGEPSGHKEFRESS
Method: as §1, §2, §3

[4] = tested on: 25 human TAS2Rs; experiment: Single dose scanning of phenolic compounds on the 25 bitter taste receptors (calcium mobilization, HEK293E); assay type: cell-based; conditions: single dose 300 µM, 25 TAS2Rs, N = 2
Method: as §1, §2, §3
Figure 3 Phenolic compound bitter taste activity tests on hTAS2Rs. Relative fluorescence signals caused by phenolic compound activation of the receptors and the empty vector as a negative control. The concentration of the compounds used was [300 µM], except for Ligstroside aglycon and Oleuropein aglycon [200 µM], oleuropein that was [3 mM]. The asterisks indicate significant differences tested by one-way ANOVA (***p < 0.0001) (N = 2). Data represent mean ± SD.

[5] = biological target: TAS2R38 (Homo sapiens, UniProt P59533); conditions: 1 mM, versus empty pcDNA vector
TAS2R38, sequence (P59533 whole entry): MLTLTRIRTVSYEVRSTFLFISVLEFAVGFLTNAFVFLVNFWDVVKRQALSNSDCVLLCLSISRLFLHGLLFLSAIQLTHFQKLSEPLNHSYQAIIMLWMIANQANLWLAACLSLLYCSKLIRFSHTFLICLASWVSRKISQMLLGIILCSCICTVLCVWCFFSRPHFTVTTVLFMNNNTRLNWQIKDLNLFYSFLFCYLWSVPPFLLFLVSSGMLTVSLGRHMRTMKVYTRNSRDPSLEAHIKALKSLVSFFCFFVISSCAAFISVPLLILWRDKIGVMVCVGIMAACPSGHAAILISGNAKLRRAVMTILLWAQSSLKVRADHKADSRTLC
Method: 25 human TAS2R genes were subcloned into the pcDNA 3.1 vector, as previously descripted in the literature[44],[53]. The first 45 amino acids of the rat somatostatin type 3 receptor, which serves as a cell-surface-targeting signal, were added to the N-termini of the TAS2Rs to target them more efficiently to the cell surface. Herpes simplex virus (HSV) glycoprotein D epitopes were added to the carboxy termini of the receptors for immunocytochemistry. All constructs were confirmed by DNA sequencing.
HEK293E cells were cultured at 37 °C in DMEM (Thermo Fisher Scientific), supplemented with 10% fetal bovine serum (FBS) and 1% Penicillin Streptomycin. The cells were seeded onto 96-well plates (Clear Bottom Black Polystyrene Poly-D-Lysine Coated Microplates, Corning life sciences) at a density of 50,000 (in 100 μl DMEM) per well, and cultured at 37 °C for overnight. On the second day following seeding, the medium was changed to OPTI-MEM supplemented with 5% FBS (filtered) before co-transfection using Polyethylenimine (PEI) (1.6 μg/well) with plasmid DNAs encoding TAS2Rs (0.1 μg/well), Gα16-gust44 (0.06 μg/well) and the GCaMP calcium sensor (0.035 μg/well). After 24 h, the medium was changed to fresh OPTI-MEM supplemented with 5% FBS (filtered) and 0.1% Plasmocin (InvivoGen). […]

[6] = HEK293E, normalized to the highest response of TAS2R8 to oleuropein aglycon (100%), N = 3

For `COC(=O)C1=COC(C)C(C=O)C1CC(=O)OCCc1ccc(O)c(O)c1` (single isomer, unassigned; isomer a) [Oleuropein aglycon closed-type (5a), oleuropein aglycon closed-type (isomer A)], the “times more potent than oleuropein” value [1] was roughly 50 times.

`COC(=O)C1=COC(C)C(C=O)C1CC(=O)OCCc1ccc(O)c(O)c1` (single isomer, unassigned; isomer b) [Oleuropein aglycon (5b), oleuropein aglycon closed-type (isomer B)] was tested, and the Emax [2, 6] was 67.6%, the pEC50 ([2]; dose-response, N = 3, HEK293E) was 3.85 and the “activation of TAS2R1” value ([2]; single dose 200 µM) was “activated”. The “potency and efficacy on TAS2R14 in words” value ([3]; concentration-response experiments, compared with ligstroside aglycon) was “even less potent and efficacious”, the “activation of TAS2R14” value ([3]; single dose 200 µM) was “activated” and the Emax [1, 6] was 100%. The pEC50 ([1]; dose-response, N = 3, HEK293E) was 4.24, the “times more potent than oleuropein” value [1] was roughly 50 times and the “activation of TAS2R8” value ([1]; single dose 200 µM) was “activated”.

In the case of `COC(=O)C1=COC(C)C(C=O)C1CC(=O)O` (stereo not drawn) [Elenolic acid, elenolic acid], the “potency and efficacy on TAS2R8 in words” value [1] was “activated weakly and less potently; also recorded: activated TAS2R8 with lower potency”, the “activation of TAS2R8 over background” value ([1]; single dose 300 µM) was “activate” and the “activation of TAS2R8 over background” value ([1]; single dose 300 µM, listed as elenolic acid) was “activated significantly”.

In the case of `OCCc1ccc(O)c(O)c1` [Hydroxytyrosol, hydroxytyrosol], the “activation of any TAS2R” value [4] was “failed to activate any bitter receptor”.

With `C/C=C(/C=O)[C@@H](CC=O)CC(=O)OCCc1ccc(O)c(O)c1` [Oleacein, oleacein] the “activation of any TAS2R” value [4] was “did not activate any TAS2Rs; also recorded: did not show any activation of bitter receptors; also recorded: failed to activate any TAS2Rs”.

`C/C=C(/C=O)[C@@H](CC(=O)O)CC(=O)OCCc1ccc(O)cc1` [Oleocanthalic acid, oleocanthalic acid] was tested, and the “potency and efficacy on TAS2R8 in words” value [1] was “activated TAS2R8 with lower potency”, the “potency and efficacy on TAS2R8 in words” value ([1]; listed as oleocanthalic acid) was “activated weakly and less potently” and the “activation of TAS2R8 over background” value ([1]; single dose 300 µM) was “activate”. For the same molecule, the “activation of TAS2R8 over background” value ([1]; single dose 300 µM, listed as oleocanthalic acid) was “activated significantly”.

With `C/C=C(/C=O)C(CC(=O)OCCc1ccc(O)c(O)c1)/C(=C/O)C(=O)OC` (stereo not drawn) [Oleomissional, oleomissional] the “potency and efficacy on TAS2R8 in words” value [1] was “activated weakly and less potently”, the “potency and efficacy on TAS2R8 in words” value ([1]; listed as oleomissinal) was “activated TAS2R8 with lower potency” and the “activation of TAS2R8 over background” value ([1]; single dose 300 µM) was “activate”. The “activation of TAS2R8 over background” value ([1]; single dose 300 µM, listed as oleomissional) was “activated significantly”.

In the case of `CC=C1C(OC2OC(CO)C(O)C(O)C2O)OC=C(C(=O)OC)C1CC(=O)O` (stereo not drawn) [Oleoside-methylester, oleoside-11-methylester], the “activation of any TAS2R” value ([4]; listed as oleoside-11-methyl ester) was “failed to activate any bitter receptor” and the “activation of any TAS2R” value ([4]; listed as oleoside-methylester) was “did not activate any TAS2Rs; also recorded: failed to activate any TAS2Rs”.

With `C/C=C1/[C@H](O[C@@H]2O[C@H](CO)[C@@H](O)[C@H](O)[C@H]2O)OC=C(C(=O)OC)[C@H]1CC(=O)OCCc1ccc(O)c(O)c1` [Oleuropein, oleuropein] the “potency lower compared to the aglycons” value ([1]; TAS2R8) was 50 fold, the “potency and efficacy on TAS2R8 in words” value [1] was “high efficacy on TAS2R8 but very low potency and did not reach saturation” and the “activation of TAS2R8 over background” value ([1]; single dose 3 mM) was “activate; also recorded: activated TAS2R8 only”. For the same molecule, the “activation of TAS2R8 over background” value ([1]; single dose 3 mM, listed as oleuropein) was “activated significantly”.

`CCCc1cc(=O)[nH]c(=S)[nH]1` [PROP, 6-n-propylthiouracil] was tested, and the “activation of TAS2R38” value [5] was “activated”.
